Values of other authors, collected in patent US20030104065A1, “Method of preparing solid dispersions” (priority 2002, published 2003).

Settings: local anesthetic effect, versus lidocaine

CCCN1CCCC[C@H]1C(=O)Nc1c(C)cccc1C [ropivacaine]
therapeutic potency relative to lidocaine: about 50 times
